Where “and” joins values, the source holds several entries; their conditions need not be identical. Equal entries are not always repeated. Where two headings read alike, the source gives them in different places.
Legend:
[1] = target: forebrain membranes of δKO mice (non‐δ‐GABAARs); assay: [^3H]muscimol binding kinetics, δKO forebrain membranes; design: species or system mouse
Description: (§1) WT and δKO forebrain and cerebellar membranes were prepared using a modification of the method of Squires and Saederup (2000) essentially as described by Uusi‐Oukari et al. (2014). […] forebrain along with midbrain region was homogenized into 10 mM Tris‐HCl, pH 8.0 buffer containing 2 mM EDTA, using an Ultra‐Turrax T25 (Janke & Kunkel IKA labortechnik) for 20 s at 9500 rpm. The homogenates were centrifuged at 20 000 g for 10 min at +4°C and the resulting pellets were washed three times by resuspension and re‐centrifugation with 10 mM Tris‐HCl, pH 8.5 buffer containing 0.2 M NaCl, and 5 mM EDTA. The resulting pellets were then suspended in ice‐cold H2O and centrifuged. The pellets were again washed three times with Tris, pH 8.5/NaCl/EDTA as described above. The resulting pellets were finally suspended in assay buffer consisting of 50 mM Tris‐base, pH adjusted to 7.4 with citric acid, and frozen at −70°C. Before a binding experiment, the suspension was thawed, centrifuged, and suspended in assay buffer.
(§2) The binding of [^3H]muscimol (5 nM) was measured in assay buffer at 22°C in a total volume of 300 μL. Triplicate technical replicates of mouse forebrain (190–215 μg protein), cerebellar (180–210 μg protein) or HEK cell (92–132 μg protein) membranes for each time point were incubated with shaking for various times (15 s–15 min) to measure association of the binding. […] The incubation was terminated by filtration of the samples with a Brandel Cell Harvester (model M‐24, Gaithersburg, MD, USA) onto Whatman GF/B filters (Whatman International Ltd., Maidstone, UK). The samples were rinsed twice with 4–5 mL of ice‐cold assay buffer. Filtration and rinsing steps took a total time of ~15 s. Air‐dried filters were immersed in 3 mL of Optiphase HiSafe 3 scintillation fluid (Wallac, Turku, Finland) and radioactivity determined in a Wallac model 1410 liquid scintillation counter (Wallac, Turku, Finland). The maximal binding disintegrations per minute (DPM) values (at 15 min in association) for recombinant studies with 5 nM [^3H]muscimol were between 700 and 2500 DPMs of specific binding (background subtracted). In native membranes, the maximal DPM values were between 2500 and 3000 for WTs and 1300–1500 for δKOs.
(§3) The tubes were mixed and incubations at 22°C were terminated at various time points (30 s – 30 min) as described above. Dissociation of [^3H]muscimol from recombinant receptors in HEK cell membranes was also measured at 0–4°C (on ice) to evaluate how fast [^3H]muscimol dissociates from receptors while washing the filter with ice‐cold assay buffer during filtration.

[2] = target: native δ‐GABAARs in the forebrain (WT‐δKO, predominantly α4βδ) (Mus musculus, UniProt P63137+Q9D6F4); assay: [^3H]muscimol binding kinetics, forebrain WT‐δKO (subtracted); conditions: 22°C
Description: as §1
(§4) The binding of [^3H]muscimol (5 nM) was measured in assay buffer at 22°C in a total volume of 300 μL. Triplicate technical replicates of mouse forebrain (190–215 μg protein), cerebellar (180–210 μg protein) or HEK cell (92–132 μg protein) membranes for each time point were incubated with shaking for various times (15 s–15 min) to measure association of the binding. […] Air‐dried filters were immersed in 3 mL of Optiphase HiSafe 3 scintillation fluid (Wallac, Turku, Finland) and radioactivity determined in a Wallac model 1410 liquid scintillation counter (Wallac, Turku, Finland). […]
as §3, with “filtration. […]” for “filtration.”

[3] = target: native δ‐GABAARs in the cerebellum (WT‐δKO, α6βδ) (Mus musculus, UniProt P16305+P63137); assay: [^3H]muscimol binding kinetics, cerebellum WT‐δKO (subtracted); conditions: 22°C
Description: as §1, §4
as §3, with “filtration. […]” for “filtration.”

[4] = target: T1, α6β2 recombinant GABAA receptor (Rattus norvegicus, UniProt P30191+P63138); assay: [^3H]muscimol binding kinetics, recombinant α6β2 in HEK293 membranes; conditions: room temperature (22°C)
T1 construct: expressed in transfected cells; host or cells: HEK293 (ATCC CRL-1573), pRK5 plasmids, membranes
Description: Human embryonic kidney (HEK) 293 cells (ATCC Cat# CRL‐1573; RRID: CVCL_0045; a commonly misidentified cell line by ICLAC; last authenticated by STR DNA profiling in December 2018) were transfected with rat cDNAs (α1, L08490; α6, L08495; β2, X15467; β3, X15468; γ2S, L08497; δ, L08496) in pRK5 plasmids under the control of the cytomegalovirus promoter (Uusi‐Oukari et al. 2000), using the calcium phosphate precipitation method essentially as described (Lüddens and Korpi 1997). The plasmids were used in 1 : 1 and 1 : 1 : 1 ratios for transfections containing 2 [(α1 or α6) + (β2 or β3)] or 3 [(α1 or α6) + (β2 or β3) + (γ2S or δ)] different subunits, respectively (5 μg of each plasmid DNA for a 10 cm plate). […]
The binding of [^3H]muscimol (5 nM) was measured in assay buffer at 22°C in a total volume of 300 μL. […] Air‐dried filters were immersed in 3 mL of Optiphase HiSafe 3 scintillation fluid (Wallac, Turku, Finland) and radioactivity determined in a Wallac model 1410 liquid scintillation counter (Wallac, Turku, Finland). […]
as §3

[5] = target: T2, α6β2δ recombinant GABAA receptor (Rattus norvegicus, UniProt P30191+P63138); assay: [^3H]muscimol binding kinetics, recombinant α6β2δ in HEK293 membranes
T2 construct: expressed in transfected cells; host or cells: HEK293 (ATCC CRL-1573), pRK5 plasmids, membranes
Description: Human embryonic kidney (HEK) 293 cells (ATCC Cat# CRL‐1573; RRID: CVCL_0045; a commonly misidentified cell line by ICLAC; last authenticated by STR DNA profiling in December 2018) were transfected with rat cDNAs (α1, L08490; α6, L08495; β2, X15467; β3, X15468; γ2S, L08497; δ, L08496) in pRK5 plasmids under the control of the cytomegalovirus promoter (Uusi‐Oukari et al. 2000), using the calcium phosphate precipitation method essentially as described (Lüddens and Korpi 1997). The plasmids were used in 1 : 1 and 1 : 1 : 1 ratios for transfections containing 2 [(α1 or α6) + (β2 or β3)] or 3 [(α1 or α6) + (β2 or β3) + (γ2S or δ)] different subunits, respectively (5 μg of each plasmid DNA for a 10 cm plate). Mock transfection was done using 5 μg pRK5 plasmid backbone. The cells were harvested 48 h after transfection. Culture medium was removed and the cells were detached from the plates by pipetting in ice‐cold assay buffer containing 2 mM EDTA. The cells were homogenized (Ultra Turrax, 20 s at 9500 rpm), the homogenates centrifuged at 20 000 g for 10 min at +4°C, and washed once with the same buffer. The homogenates were finally suspended in assay buffer (1 mL/plate) and either used directly to binding assays or stored frozen at −70°C.
as §2, §3

[6] = forebrain WT‐δKO (native δ‐GABAARs, by subtraction)
[7] = cerebellum WT‐δKO (native δ‐GABAARs, by subtraction)

native δ‐GABAARs in the forebrain (WT‐δKO, predominantly α4βδ), sequence (Q9D6F4 36-552): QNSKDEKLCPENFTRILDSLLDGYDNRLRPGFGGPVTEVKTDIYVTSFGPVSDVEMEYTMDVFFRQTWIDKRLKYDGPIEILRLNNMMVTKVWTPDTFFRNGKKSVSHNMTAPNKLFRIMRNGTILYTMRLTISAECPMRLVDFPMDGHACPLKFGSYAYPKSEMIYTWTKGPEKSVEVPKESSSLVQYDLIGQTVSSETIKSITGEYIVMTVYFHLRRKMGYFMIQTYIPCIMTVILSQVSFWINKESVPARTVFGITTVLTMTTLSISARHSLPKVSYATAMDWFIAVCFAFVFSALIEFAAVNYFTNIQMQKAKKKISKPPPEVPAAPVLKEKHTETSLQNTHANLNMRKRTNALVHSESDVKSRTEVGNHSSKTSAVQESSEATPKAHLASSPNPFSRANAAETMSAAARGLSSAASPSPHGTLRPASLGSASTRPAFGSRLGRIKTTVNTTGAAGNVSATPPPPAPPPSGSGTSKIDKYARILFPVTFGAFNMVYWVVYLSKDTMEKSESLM
native δ‐GABAARs in the forebrain (WT‐δKO, predominantly α4βδ), sequence (P63137 26-512): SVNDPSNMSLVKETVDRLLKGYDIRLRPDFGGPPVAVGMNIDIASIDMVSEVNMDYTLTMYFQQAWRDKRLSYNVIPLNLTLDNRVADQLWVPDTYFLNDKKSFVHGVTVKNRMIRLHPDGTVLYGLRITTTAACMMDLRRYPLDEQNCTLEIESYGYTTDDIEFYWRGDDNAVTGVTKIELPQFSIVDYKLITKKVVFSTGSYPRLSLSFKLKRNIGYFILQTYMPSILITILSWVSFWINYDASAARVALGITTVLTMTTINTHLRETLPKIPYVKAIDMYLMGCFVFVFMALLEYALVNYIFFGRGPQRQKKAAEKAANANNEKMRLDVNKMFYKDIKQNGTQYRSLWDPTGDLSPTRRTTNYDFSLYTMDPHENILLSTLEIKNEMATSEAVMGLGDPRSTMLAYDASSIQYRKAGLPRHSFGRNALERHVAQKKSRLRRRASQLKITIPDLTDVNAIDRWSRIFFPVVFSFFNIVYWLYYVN
native δ‐GABAARs in the forebrain (WT‐δKO, predominantly α4βδ), sequence (P22933 25-449 partner): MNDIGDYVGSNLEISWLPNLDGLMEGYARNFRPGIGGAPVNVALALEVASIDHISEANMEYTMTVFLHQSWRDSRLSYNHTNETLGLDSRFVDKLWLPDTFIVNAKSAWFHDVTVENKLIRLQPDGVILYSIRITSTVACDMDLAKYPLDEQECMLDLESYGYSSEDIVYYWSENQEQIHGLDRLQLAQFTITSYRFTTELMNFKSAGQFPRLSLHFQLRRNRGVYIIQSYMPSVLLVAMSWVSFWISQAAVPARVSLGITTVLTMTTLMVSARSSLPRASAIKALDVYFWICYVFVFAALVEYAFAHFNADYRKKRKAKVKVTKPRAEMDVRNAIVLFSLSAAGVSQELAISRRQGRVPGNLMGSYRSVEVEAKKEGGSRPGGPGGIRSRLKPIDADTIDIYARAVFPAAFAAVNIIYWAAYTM
native δ‐GABAARs in the cerebellum (WT‐δKO, α6βδ), sequence (P16305 20-453): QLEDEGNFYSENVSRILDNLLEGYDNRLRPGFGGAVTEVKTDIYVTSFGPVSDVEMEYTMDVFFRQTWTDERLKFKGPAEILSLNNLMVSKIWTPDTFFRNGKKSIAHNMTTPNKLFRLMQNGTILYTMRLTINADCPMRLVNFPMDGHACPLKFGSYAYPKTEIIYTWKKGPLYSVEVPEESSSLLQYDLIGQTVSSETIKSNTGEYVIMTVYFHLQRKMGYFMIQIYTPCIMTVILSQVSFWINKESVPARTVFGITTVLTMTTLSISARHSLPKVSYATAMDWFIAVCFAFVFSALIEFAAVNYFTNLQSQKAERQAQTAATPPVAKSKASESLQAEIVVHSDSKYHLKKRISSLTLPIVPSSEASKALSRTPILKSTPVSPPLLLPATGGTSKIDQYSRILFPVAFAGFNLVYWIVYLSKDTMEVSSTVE
native δ‐GABAARs in the cerebellum (WT‐δKO, α6βδ), sequence (P63137 26-512): as the sequence (P63137 26-512) above
native δ‐GABAARs in the cerebellum (WT‐δKO, α6βδ), sequence (P22933 25-449 partner): as the sequence (P22933 25-449 partner) above
T2 sequence (P30191 20-453): as the sequence (P16305 20-453) above, with Q121H, T163S, T325K, A333T, S334T, Q338E, A371V, K379P, S384T, T392I counted along it
T2 sequence (P63138 26-474): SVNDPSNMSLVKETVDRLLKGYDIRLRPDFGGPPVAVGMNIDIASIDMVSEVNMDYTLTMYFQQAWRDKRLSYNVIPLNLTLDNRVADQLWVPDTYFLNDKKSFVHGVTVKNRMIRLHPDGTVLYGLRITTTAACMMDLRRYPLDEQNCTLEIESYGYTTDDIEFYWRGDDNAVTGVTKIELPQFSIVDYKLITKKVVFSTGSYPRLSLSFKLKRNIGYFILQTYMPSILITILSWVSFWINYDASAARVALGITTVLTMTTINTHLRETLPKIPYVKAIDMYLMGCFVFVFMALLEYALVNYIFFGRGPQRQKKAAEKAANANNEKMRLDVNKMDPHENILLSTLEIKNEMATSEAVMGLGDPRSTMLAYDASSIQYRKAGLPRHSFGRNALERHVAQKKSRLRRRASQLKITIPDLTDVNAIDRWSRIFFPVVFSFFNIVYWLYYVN
T2 sequence (P18506 25-449 partner): as the sequence (P22933 25-449 partner) above, with A38P, L149M counted along it
T1 sequence (P30191 20-453): as the sequence (P16305 20-453) above, with Q121H, T163S, T325K, A333T, S334T, Q338E, A371V, K379P, S384T, T392I counted along it
T1 sequence (P63138 26-474): as the sequence (P63138 26-474) above

Compound: NCc1cc(=O)[nH]o1 [[^3H]muscimol] [[Methylene‐^3H]muscimol]
- Kd ([1]; calculated from k on and k off, read-out: apparent [^3H]muscimol affinities (K D) for non‐δ‐GABAARs): ~1 nM
- Kd ([1]; forebrain membranes, 22°C, K D = koff/kon, read-out: K D): 1.1 nM
- k off ([1]; forebrain membranes, room temperature (22°C)): 1.67 ± 0.15 ^*** min^−1
- k on ([1]; forebrain membranes, room temperature (22°C), 5 nM [^3H]muscimol): 15 ± 3.1 × 10^8 ^** M^−1 × min^−1
- k off [2, 6]: 0.00383 ± 0.00033 s⁻¹
- k on [2, 6]: 1.4 ± 0.2 × 10^8 M^−1 × min^−1
- Kd ([2]; forebrain WT‐δKO (native δ‐GABAARs, α4βδ), K D = koff/kon): ~1.6 nM and 1.6 nM
- k off [3, 7]: 0.002 ± 0.0005 s⁻¹
- k on [3, 7]: 1.2 ± 0.2 × 10^8 M^−1 × min^−1
- Kd ([3]; cerebellum WT‐δKO (native δ‐GABAARs, α6βδ), K D = koff/kon): ~1 nM and 1 nM
- k off [4]: 1.46 ± 0.05 ^††† min^−1
- Kd ([5]; α6β2δ in HEK293 membranes, 22°C, K D = koff/kon): 1.3 nM
- k off ([5]; α6β2δ in HEK293 membranes, +4 °C): 0.015 ± 0.003 ^*** min^−1
- k off ([5]; α6β2δ in HEK293 membranes, room temperature (22°C)): 0.13 ± 0.03 ^### min^−1
- k on ([5]; α6β2δ in HEK293 membranes, room temperature (22°C), 5 nM [^3H]muscimol): 1.0 ± 0.1 × 10^8, ^### M^−1 × min^−1
- association rate constant kon lower when compared to γ2‐GABAARs ([5]; α6β2δ vs α1β2γ2 and α6β2γ2, 22°C): 6.3–11 fold
- [^3H]muscimol still remaining bound ([5]; α6β2δ, 0°C, 30 min after start of the dissociation): 70%
